Experimental findings from PubChem BioAssay (NCI) are described below.

SMILES strings stand for the structures. Values joined by “and” are separate entries in the source; they are usually repeats but may differ in a detail not shown here. Equal entries are not always repeated.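 96-well plates; 48 h exposure; 5 concentrations. Endpoints by linear interpolation between flanking doses. Not reached: highest tested concentration assigned. Here, GI50 denotes the concentration required for 50% inhibition of growth. TGI denotes the concentration required for complete inhibition of growth.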 A value given as a limit tells only on which side of the number the result lay.

Some test systems named below: LOX IMVI melanoma; UO-31 renal; NCI-H522 lung; HL-60(TB) leukemia; MALME-3M melanoma; HOP-92 NSCLC; SK-MEL-28 melanoma; SN12C renal; A549 NSCLC; SF-539 CNS; HCT-15 colon; CCRF-CEM leukemia.
Experiment in all cases: NCI anticancer screen, dose series, 48 h

Take `COC(=O)c1c(O)ccc2c1c1c(n2Cc2cc(OC)cc(OC)c2)C(=O)c2ccccc2C1=O`: the TGI in the experiment on LOX IMVI melanoma came out at 63.5 µM; in the experiment on UO-31 renal, 40.5 µM; in the experiment with NCI-H522 lung, 20.9 µM; with HL-60(TB) leukemia it was 39.4 µM; in the experiment on MALME-3M melanoma, 22.4 µM; with HOP-92 NSCLC, 24.6 µM. For the same compound, the TGI in the experiment with SK-MEL-28 melanoma stood at 33 µM; in the experiment on SN12C renal, 24.2 µM; with A549 NSCLC, 31.3 µM; in the experiment on SF-539 CNS, 25.9 µM; in the experiment with HCT-15 colon, 21.1 µM; with CCRF-CEM leukemia, 78.6 µM.
In the case of `CC1(C)OC[C@@H]([C@@]2(COC(c3ccccc3)(c3ccccc3)c3ccccc3)CC=CC(=O)O2)O1`, the TGI was more than 100 µM with LOX IMVI melanoma; more than 100 µM in the experiment with UO-31 renal; 40.9 µM in the experiment on NCI-H522 lung; 81.2 µM in the experiment on HL-60(TB) leukemia; more than 100 µM in the experiment on MALME-3M melanoma; 92.1 µM in the experiment on HOP-92 NSCLC. The TGI was more than 100 µM in the experiment on SK-MEL-28 melanoma; 97.1 µM in the experiment with SN12C renal; more than 100 µM in the experiment with A549 NSCLC; more than 100 µM in the experiment on SF-539 CNS; more than 100 µM with HCT-15 colon; 96.7 µM with CCRF-CEM leukemia.
For `O=c1c2cc(O)ccc2n2nnc3ccc(NCCNCCO)c1c32`, the TGI in the experiment with LOX IMVI melanoma is 13.4 µM and 10.2 µM; in the experiment with UO-31 renal, > 100 µM and 70.2 µM; in the experiment with NCI-H522 lung, 2.33 µM and 4.8 µM; in the experiment on HL-60(TB) leukemia, > 42.2 µM and 13.1 µM; with MALME-3M melanoma it was 20.5 µM and 11.5 µM; with HOP-92 NSCLC, 16.5 µM and 12.9 µM. Besides, the TGI is 22.7 µM and 16.2 µM with SK-MEL-28 melanoma; 51.9 µM and 18.4 µM in the experiment with SN12C renal; > 100 µM and 28.9 µM in the experiment with A549 NSCLC; 15.9 µM and 14.9 µM with SF-539 CNS; more than 100 µM in the experiment with HCT-15 colon; > 36.6 µM and 10.6 µM in the experiment with CCRF-CEM leukemia. Further, the GI50 was 0.582 µM and 1.47 µM in the experiment on NCI-H522 lung; 6.46 µM and 1.88 µM in the experiment on HL-60(TB) leukemia; 6.02 µM and 2.56 µM in the experiment on MALME-3M melanoma; 9.78 µM and 4.3 µM in the experiment on SK-MEL-28 melanoma; 5.78 µM and 2.85 µM in the experiment on SN12C renal; 22.9 µM and 5.95 µM in the experiment on A549 NSCLC. The GI50 with CCRF-CEM leukemia is 1.73 µM and 0.501 µM.
Regarding `CC(Oc1ccccc1Cl)C(=O)NN1C(=O)CC(=O)N(c2ccc(Cl)cc2)C1=S` (stereo not drawn), the TGI in the experiment with LOX IMVI melanoma was more than 100 µM; in the experiment with UO-31 renal it was more than 100 µM; with NCI-H522 lung, more than 100 µM; with HL-60(TB) leukemia, 8.68 µM; in the experiment on MALME-3M melanoma, more than 100 µM; in the experiment on HOP-92 NSCLC, 63.2 µM. Moreover, the TGI in the experiment with SK-MEL-28 melanoma, in the experiment with SN12C renal, with A549 NSCLC, with SF-539 CNS and with HCT-15 colon was more than 100 µM each time.
As to `Cc1ccc(-c2cc(-c3ccc(Cl)cc3)nc(/N=C3\C(=O)N(CN(C)C)c4ccccc43)n2)cc1`, the TGI is 58.5 µM in the experiment on LOX IMVI melanoma; more than 100 µM in the experiment on UO-31 renal; 69.4 µM in the experiment with NCI-H522 lung; 26.2 µM in the experiment with HL-60(TB) leukemia; more than 100 µM in the experiment on MALME-3M melanoma; more than 100 µM in the experiment with HOP-92 NSCLC. In addition, the TGI with SK-MEL-28 melanoma, with SN12C renal, with A549 NSCLC, in the experiment on SF-539 CNS, in the experiment on HCT-15 colon and with CCRF-CEM leukemia was more than 100 µM throughout.
For the compound `Nc1nc(SCC(=O)c2ccc(Br)cc2)c2[nH]cnc2n1`, the TGI is more than 100 µM in the experiment on LOX IMVI melanoma; more than 100 µM in the experiment on UO-31 renal; 86.5 µM in the experiment on NCI-H522 lung; 63.1 µM in the experiment with HL-60(TB) leukemia; more than 100 µM with MALME-3M melanoma; 62.1 µM in the experiment with HOP-92 NSCLC. The TGI is more than 100 µM with SK-MEL-28 melanoma; more than 100 µM in the experiment with SN12C renal; more than 100 µM in the experiment on A549 NSCLC; more than 100 µM with HCT-15 colon; 47.8 µM in the experiment with CCRF-CEM leukemia.
For `COc1ccccc1-c1c(C#N)c(N)[nH]c(=S)c1C#N`, the TGI in the experiment with LOX IMVI melanoma, in the experiment on UO-31 renal, in the experiment on NCI-H522 lung, in the experiment on HL-60(TB) leukemia, with MALME-3M melanoma and with HOP-92 NSCLC was more than 100 µM throughout. The TGI is more than 100 µM in the experiment with SK-MEL-28 melanoma; 91.8 µM in the experiment on SN12C renal; more than 100 µM with A549 NSCLC; more than 100 µM with SF-539 CNS; more than 100 µM in the experiment on HCT-15 colon.
Take `Oc1ccccc1C=Nc1ccc(-c2nc3ccccc3s2)cc1`: the TGI in the experiment with LOX IMVI melanoma was more than 100 µM; in the experiment with UO-31 renal, more than 100 µM; in the experiment on NCI-H522 lung, 54.7 µM; in the experiment on HL-60(TB) leukemia it was 91.2 µM; with MALME-3M melanoma, more than 100 µM; with HOP-92 NSCLC, 56.4 µM. Moreover, the TGI in the experiment on SK-MEL-28 melanoma, in the experiment with SN12C renal, with A549 NSCLC, in the experiment with SF-539 CNS, in the experiment on HCT-15 colon and with CCRF-CEM leukemia was more than 100 µM in each case.
For the compound `COc1ccc(C2C3CCc4ccccc4C3=NN2S(=O)(=O)c2cccc(C(=O)O)c2OC)cc1` (stereo not drawn), the TGI is more than 100 µM in the experiment on LOX IMVI melanoma; more than 100 µM in the experiment with UO-31 renal; 14.2 µM with NCI-H522 lung; more than 100 µM in the experiment with HL-60(TB) leukemia; more than 100 µM with MALME-3M melanoma; more than 100 µM in the experiment with HOP-92 NSCLC. Also, the TGI was more than 100 µM in the experiment on SN12C renal; more than 100 µM in the experiment with A549 NSCLC; 22 µM in the experiment with SF-539 CNS; 0.778 µM in the experiment with HCT-15 colon; 81.7 µM in the experiment on CCRF-CEM leukemia.
Consider `CC1=NN(c2nc(N)nc(/C(C#N)=C\c3ccc(-c4ccc([N+](=O)[O-])cc4)o3)n2)C(C)(C)C1`, for which the TGI in the experiment on LOX IMVI melanoma is more than 100 µM; with UO-31 renal, more than 100 µM; in the experiment on NCI-H522 lung, more than 100 µM; in the experiment on HL-60(TB) leukemia, 94.7 µM; in the experiment with MALME-3M melanoma it was more than 100 µM; in the experiment with HOP-92 NSCLC, more than 100 µM. Moreover, the TGI with SK-MEL-28 melanoma, with SN12C renal, in the experiment on A549 NSCLC, in the experiment on SF-539 CNS, in the experiment with HCT-15 colon and with CCRF-CEM leukemia was more than 100 µM throughout.
